# How the values were obtained:
# [1] = test system: elastase-induced lung injury; experiment: Rabbit model of elastase-induced lung injury: lung histology (alveolar destruction, airway subepithelial fibrotic changes); type: in vivo
# Text: Rabbits were divided into three groups (n=10 animals/group). Two hundred U/kg of porcine pancreatic elastase (PPE) was intratracheally administered into the lungs of the animals in the Vehicle and the Compound A group. The animals in the Sham group was intratracheally administered the same volume of saline instead of PPE. The rabbits were dissected 28 days after PPE administration. The lung tissue of each rabbit was fixed in formalin to prepare histological sections thereof. Two hours prior to the administration of PPE, Vehicle (0.5% tragacanth) or Compound A (10 mg/kg) was orally administered to the rabbits in the Vehicle and the Compound A group, respectively; from the next day, the oral administration of Vehicle or Compound A was continued once a day, 5 days a week until the end of the experiment. The histological sections were immunohistochemically stained using respective antibodies against MMP-2 or MMP-9. Then, under the microscope, the extent of MMP-2 and MMP-9 expression was evaluated, and expressed as a score. The extent of the fibrotic changes in the airway subepithelial region and the extent of alveolar destruction were also observed.
# [2] = test system: bleomycin- or asbestos-induced lung fibrosis; settings: bleomycin- or asbestos-induced lung fibrosis animal model; cited from earlier work
# [3] = 28 days after PPE, 10 mg/kg oral, vs. Vehicle group
Compound,"Alveolar Mean Linear Intercept (Average ± Standard deviation) ([1]; 28 days after PPE 200 U/kg intratracheal, 10 mg/kg oral once a day, 5 days a week, p<0.01 vs. Vehicle) [μm ##]","alveolar destruction [1, 3]","thickening of the airway subepithelial layer resulted from fibrotic changes [1, 3]",increase in MMP activity and the number of white blood cell infiltrated in the bronchoalveolar lavage fluid [2],lung fibrosis in the histological and biochemical aspects [2]
"CCOc1ccc(-c2nc(-c3cccc(C(=O)O)n3)cs2)cc1OCC [Compound A, 6-[2-(3,4-diethoxyphenyl)thiazol-4-yl]pyridine-2-carboxylic acid]",72.8 ± 2.6,significantly suppressed,alleviated,–,–
CNC(=O)[C@H](Cc1c[nH]c2ccccc12)NC(=O)[C@@H](CC(=O)NO)CC(C)C [GM6001],–,–,–,suppressed,suppressed
